The supplement of paper PMC5908809

What was measured:
[1] = tested on: normal primary NK cells, pool 2 (3 donors) (IL-2 2.5 ng/mL); experiment: percent inhibition of viability; higher = more inhibition; details: 72 h
IMC-1 (IL-2 20 ng/mL) [2] = experiment: as above; details: 72 h
NK-92 (IL-2 2.5 ng/mL) [3] = experiment: as above; details: 72 h
NK-YS (IL-2 2.5 ng/mL) [4] = experiment: as above; details: 72 h
NKL (IL-2 2.5 ng/mL) [5] = experiment: as above; details: 72 h
KAI3 (IL-2 2.5 ng/mL) [6] = experiment: as above; details: 72 h
[7] = tested on: normal primary NK cells, pool 1 (3 donors), resting (IL-2 0 ng/mL); experiment: as above; details: 72 h
[8] = tested on: normal primary NK cells, pool 3 (3 donors) (IL-2 2.5 ng/mL); experiment: as above; details: 72 h
DERL-7 (IL-2 2.5 ng/mL) [9] = experiment: as above; details: 72 h
YT (IL-2 2.5 ng/mL) [10] = experiment: as above; details: 72 h
KHYG-1 (IL-2 2.5 ng/mL) [11] = experiment: as above; details: 72 h
SNK-6 (IL-2 2.5 ng/mL) [12] = experiment: as above; details: 72 h
[13] = tested on: normal primary NK cells, pool 1 (3 donors) (IL-2 2.5 ng/mL); experiment: as above; details: 72 h
[14] = tested on: normal NK cells expanded with K562-aAPC; experiment: drug sensitivity score (DSS) (DSS units); higher = more sensitive; extreme values may be limits of the assay; details: 72 h; IL-2 2.5 ng/mL
Procedure: (§1)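 Drug sensitivity and resistance testing on K562-aAPC-expanded normal NK cells: 5 concentrations (10-fold steps over a 10,000-fold range), 72 h at 37 °C, viability by CellTiter-Glo normalised to DMSO and benzethonium chloride controls; DSS from the fitted curve.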

[15] = tested on: normal primary NK cells, pool 2 (3 donors) (IL-2 2.5 ng/mL); experiment: as above; details: 72 h
IMC-1 (IL-2 20 ng/mL) [16] = experiment: as above; details: 72 h
NK-92 (IL-2 2.5 ng/mL) [17] = experiment: as above; details: 72 h
NK-YS (IL-2 2.5 ng/mL) [18] = experiment: as above; details: 72 h
NKL (IL-2 2.5 ng/mL) [19] = experiment: as above; details: 72 h
KAI3 (IL-2 2.5 ng/mL) [20] = experiment: as above; details: 72 h
[21] = tested on: normal primary NK cells, pool 1 (3 donors), resting (IL-2 0 ng/mL); experiment: as above; details: 72 h
[22] = tested on: normal primary NK cells, pool 3 (3 donors) (IL-2 2.5 ng/mL); experiment: as above; details: 72 h
DERL-7 (IL-2 2.5 ng/mL) [23] = experiment: as above; details: 72 h
YT (IL-2 2.5 ng/mL) [24] = experiment: as above; details: 72 h
KHYG-1 (IL-2 2.5 ng/mL) [25] = experiment: as above; details: 72 h
SNK-6 (IL-2 2.5 ng/mL) [26] = experiment: as above; details: 72 h
[27] = tested on: normal primary NK cells, pool 1 (3 donors) (IL-2 2.5 ng/mL); experiment: as above; details: 72 h
[28] = tested on: normal NK cells expanded with K562-aAPC; experiment: percent inhibition of viability; higher = more inhibition; details: 72 h, IL-2 2.5 ng/mL
Procedure: as §1

CC[C@@H]1C(=O)N(C)c2cnc(Nc3ccc(C(=O)NC4CCN(C)CC4)cc3OC)nc2N1C1CCCC1 [BI 2536] (max concentration tested 1000 nM)
percent inhibition of viability [%]
Details | 0.1 nM | 1 nM | 10 nM | 100 nM | 1000 nM
DERL-7 (IL-2 2.5 ng/mL) [9] | -1.78 | 1.66 | 56.8 | 99.1 | 96.4
IMC-1 (IL-2 20 ng/mL) [2] | -3.03 | -6.74 | 26.6 | 96.7 | 95.2
KAI3 (IL-2 2.5 ng/mL) [6] | -2.84 | 1.84 | 32 | 55.7 | 52.9
KHYG-1 (IL-2 2.5 ng/mL) [11] | -0.33 | -0.33 | 11.5 | 101 | 102
NK-92 (IL-2 2.5 ng/mL) [3] | -10.3 | -5.85 | 41.7 | 99.6 | 91.2
NK-YS (IL-2 2.5 ng/mL) [4] | 1.37 | 3.08 | 22.7 | 66.2 | 58.4
NKL (IL-2 2.5 ng/mL) [5] | -16.1 | -17.7 | 34.5 | 66.8 | 64.5
SNK-6 (IL-2 2.5 ng/mL) [12] | 3.37 | 2.93 | 50.7 | 61.7 | 48.1
YT (IL-2 2.5 ng/mL) [10] | -0.96 | -1.95 | 5.23 | 77.8 | 74.1
[1] | -11.8 | -7.85 | -1.58 | 7 | 58.2
[7] | 4.96 | 13.2 | -4.79 | -10.2 | 31.4
[8] | -15.6 | -13.3 | -7.87 | -2.57 | 41.2
[13] | -8.51 | 7.02 | -5.03 | -6.42 | 36.1
[28] | 1.03 | 0.31 | 20.1 | 60.1 | 67.4

Details | drug sensitivity score
DERL-7 (IL-2 2.5 ng/mL) [23] | 24.6
IMC-1 (IL-2 20 ng/mL) [16] | 21.4
KAI3 (IL-2 2.5 ng/mL) [20] | 14.1
KHYG-1 (IL-2 2.5 ng/mL) [25] | 19.9
NK-92 (IL-2 2.5 ng/mL) [17] | 23.4
NK-YS (IL-2 2.5 ng/mL) [18] | 15.2
NKL (IL-2 2.5 ng/mL) [19] | 16.6
SNK-6 (IL-2 2.5 ng/mL) [26] | 17.8
YT (IL-2 2.5 ng/mL) [24] | 15
[14] | 13.5
[15] | 4.32
[21] | 0.98
[22] | 1.86
[27] | 1.36

COc1cc2c(Oc3ccc4[nH]c(C)cc4c3F)ncnc2cc1OCCCN1CCCC1 [Cediranib] (max concentration tested 1000 nM)
percent inhibition of viability [%]
Details | 0.1 nM | 1 nM | 10 nM | 100 nM | 1000 nM
DERL-7 (IL-2 2.5 ng/mL) [9] | 0.36 | 1.65 | 5.2 | 3.45 | 7.76
IMC-1 (IL-2 20 ng/mL) [2] | -5.84 | 1.16 | -0.8 | 8.28 | 17.6
KAI3 (IL-2 2.5 ng/mL) [6] | 4.2 | -2.39 | -4.78 | -7.3 | 2.49
KHYG-1 (IL-2 2.5 ng/mL) [11] | 4.26 | 1.2 | 0.25 | 3.56 | 5.7
NK-92 (IL-2 2.5 ng/mL) [3] | -10.6 | 3.93 | 7.82 | 10.5 | 25.9
NK-YS (IL-2 2.5 ng/mL) [4] | -2.57 | -1.64 | -1.64 | -2.9 | 4.62
NKL (IL-2 2.5 ng/mL) [5] | -22.1 | -12.6 | -8.18 | 4.3 | -2.96
SNK-6 (IL-2 2.5 ng/mL) [12] | -0.01 | -5.98 | -7.81 | 1.67 | -2.98
YT (IL-2 2.5 ng/mL) [10] | -2.86 | -1.1 | -1.25 | -2.55 | 7.27
[1] | -4.71 | 1.73 | 4.28 | -4.99 | 7
[7] | 4.39 | -7.82 | 2.26 | -0.33 | 6.25
[8] | -13.7 | -14.2 | -5.69 | -12.7 | -3.19
[13] | 4.11 | -11.2 | -8.24 | -9.08 | -10.8
[28] | -3.67 | -0.35 | -1.67 | 10.2 | 9.48

Details | drug sensitivity score
DERL-7 (IL-2 2.5 ng/mL) [23] | 0
IMC-1 (IL-2 20 ng/mL) [16] | 1.2
KAI3 (IL-2 2.5 ng/mL) [20] | 0
KHYG-1 (IL-2 2.5 ng/mL) [25] | 0
NK-92 (IL-2 2.5 ng/mL) [17] | 1.88
NK-YS (IL-2 2.5 ng/mL) [18] | 0
NKL (IL-2 2.5 ng/mL) [19] | 0
SNK-6 (IL-2 2.5 ng/mL) [26] | 0
YT (IL-2 2.5 ng/mL) [24] | 0
[14] | 0.03
[15] | 0
[21] | 0
[22] | 0
[27] | 0
